Data reported in PubChem BioAssay AID651677 (The Scripps Research Institute Molecular Screening Center, 2012).
Values joined by “and” are separate entries in the source; they are usually repeats but may differ in a detail not shown here. Equal values may be shown once. Active and inactive are the calls of the source. No rule for the calls is given here.

The molecules below were run against Perilipin-5 (Homo sapiens) + 1-acylglycerol-3-phosphate O-acyltransferase ABHD5 (Homo sapiens) (UniProt Q00G26+Q8WTS1) (assay: blockers of ABHD5 binding to perilipin-5 – biochemical, luminescence, dose response (AID 651677)). Conditions: ABHD5-PLIN5 interaction.
Perilipin-5 (Homo sapiens) + 1-acylglycerol-3-phosphate O-acyltransferase ABHD5 (Homo sapiens), sequence (Q00G26 whole entry, looked up): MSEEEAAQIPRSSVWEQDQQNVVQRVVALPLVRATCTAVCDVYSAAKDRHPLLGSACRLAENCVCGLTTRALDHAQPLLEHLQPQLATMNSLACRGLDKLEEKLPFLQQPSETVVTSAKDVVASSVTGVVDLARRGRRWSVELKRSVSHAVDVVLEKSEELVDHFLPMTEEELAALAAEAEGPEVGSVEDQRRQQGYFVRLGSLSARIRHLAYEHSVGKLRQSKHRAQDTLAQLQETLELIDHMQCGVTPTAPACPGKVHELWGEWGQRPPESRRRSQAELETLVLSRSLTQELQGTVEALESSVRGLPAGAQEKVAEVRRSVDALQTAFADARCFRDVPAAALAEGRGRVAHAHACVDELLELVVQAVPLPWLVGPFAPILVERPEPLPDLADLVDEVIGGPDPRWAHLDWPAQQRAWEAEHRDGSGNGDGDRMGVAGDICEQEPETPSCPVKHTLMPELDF
Perilipin-5 (Homo sapiens) + 1-acylglycerol-3-phosphate O-acyltransferase ABHD5 (Homo sapiens), sequence (Q8WTS1 whole entry, looked up): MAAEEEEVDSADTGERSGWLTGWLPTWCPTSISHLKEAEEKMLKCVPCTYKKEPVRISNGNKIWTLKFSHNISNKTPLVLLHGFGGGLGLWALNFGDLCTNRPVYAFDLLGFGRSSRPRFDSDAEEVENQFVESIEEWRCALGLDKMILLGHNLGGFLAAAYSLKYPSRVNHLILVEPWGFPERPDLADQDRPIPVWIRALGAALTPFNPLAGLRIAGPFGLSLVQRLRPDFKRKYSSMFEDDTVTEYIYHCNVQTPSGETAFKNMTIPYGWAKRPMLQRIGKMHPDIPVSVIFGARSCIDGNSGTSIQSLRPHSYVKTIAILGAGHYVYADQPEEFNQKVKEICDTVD

Structure (SMILES) | IC50
COc1ccc(C(C(=O)NC2CCCCC2)n2c(=O)c(-c3ccco3)nc3ccccc32)cc1 (centres undefined) | 1.14 µM
CCOC(=O)c1c(NC(C)=O)sc2c1CCC(C=O)=C2Sc1ccccc1 | 2.4 µM
Cc1nnc(NC(=O)c2nc(S(=O)(=O)Cc3ccccc3C)ncc2Cl)s1 | 2.71 µM
Cc1cccc(NC(=O)CSc2nnc(-c3ccco3)c(-c3ccco3)n2)c1 | 1.05 µM
CCCNC(=O)Nc1ccc2c(c1)N(C)C(=O)c1ccccc1S2 | 8.61 µM
CCSc1ccc2c(c1)N(CCCN1CCN(C)CC1)c1ccccc1S2 | 5.86 µM
COc1cccc2sc(N(CCCN(C)C)C(=O)COc3ccc(Cl)cc3)nc12 | inactive
CCc1nnc(NC(=O)c2nc(S(=O)(=O)Cc3ccccc3)ncc2Cl)s1 | 4.14 µM
O=C1NC(=S)NC(=O)C12C(c1ccccc1)NC(=S)NC2c1ccccc1 (centres undefined) | 4.39 µM
COCCNC(=O)/C(C#N)=C/c1cccc(/C=C(\C#N)C(=O)NCCOC)c1 | 0.727 µM
Cc1ccc(CC2(OCCN(C)C)CCC(C(C)(C)C)CC2)cc1 (centres undefined) | 8.61 µM
Cc1cccc(C)c1OCc1cn(CC(=O)c2ccc(O)cc2)nn1 | 2.83 µM
CCN1CCN(Cc2ccc(NC(=O)c3ccc(C)c(/C=C/c4cnc(Nc5cc(N6CCNCC6)nc(C)n5)cn4)c3)cc2C(F)(F)F)CC1 | 2.58 µM
O=[N+]([O-])/C=C/c1cn(Cc2ccc(F)cc2)c2ccccc12 | 3.36 µM
COc1ccc(NC(=O)c2cc3ccccc3cc2O)cc1 | 9.05 µM
COc1ccc(C(C(=O)Nc2c(C)cccc2C)n2c(=O)c(-c3ccco3)nc3ccccc32)cc1 (centres undefined) | 2.38 µM
C=C1C(=O)O[C@H]2C[C@H]1[C@@H](OC(C)=O)C/C(C)=C/CC/C(C)=C\CC[C@]2(C)O | 1.91 µM
O=C1C(=O)c2c(C(=O)c3ccccc3)coc2-c2ccccc21 | 2.93 µM
CSc1nnc(NC(=O)c2nc(S(=O)(=O)Cc3cccc(C)c3)ncc2Cl)s1 | 2.69 µM
CCCCCNC(=O)C(c1cccc2ccccc12)n1c(=O)c(-c2ccco2)nc2ccccc21 (centres undefined) | 1.57 µM
CCCCCNC(=O)C(c1cc2ccccc2o1)n1c(=O)c(-c2ccco2)nc2ccccc21 (centres undefined) | 1.16 µM
Cc1cccc(C)c1NC(=O)C(c1ccc(-c2ccccc2)cc1)n1c(=O)c(-c2ccco2)nc2ccccc21 (centres undefined) | 1.33 µM
CCN1C/C(=C/c2ccc(OC)c(O)c2)C(=O)/C(=C/c2ccc(OC)c(O)c2)C1 | 5.66 µM
O=C(NC1CCCCC1)C(c1ccc(C(F)(F)F)cc1)n1c(=O)c(-c2ccco2)nc2ccccc21 (centres undefined) | 1.25 µM
CCCCC(=O)NC(c1cccc([N+](=O)[O-])c1)c1ccc2cccnc2c1O (centres undefined) | > 39.8 µM (inactive)

Structure (SMILES) | IC50
CN1CCC(=C2c3ccccc3CC(=O)c3sccc32)CC1 | inactive
C#CCN(C[C@@H]1[C@@H](OC(=O)NCC2CCCCC2)[C@@H](OC(=O)NCC2CCCCC2)Cn2c(=O)ccc(=O)n21)S(=O)(=O)c1ccc(C)cc1 | 3.6 µM
CCCCCNC(=O)C(c1ccc(C#N)cc1)n1c(=O)c(-c2ccco2)nc2ccccc21 (centres undefined) | 3.15 µM
CCOC(=O)C1CCCN(C(=O)c2cc(Nc3ccc(OC)cc3)nc3ccccc23)C1 (centres undefined) | inactive
CCOc1cc(/C=C2\CCC/C(=C\c3cc(Cl)c(O)c(OCC)c3)C2=O)cc(Cl)c1O | 4.16 µM
CN1[C@@H]2CC[C@H]1CC(OC1c3ccccc3CCc3ccccc31)C2 (some centres undefined) | 2.49 µM
CCOc1cc(N)c(Cl)cc1C(=O)NCC1CN(Cc2ccc(F)cc2)CCO1 (centres undefined) | 2.5 µM
Cc1cc(C)c(NC(=O)C[N+](C)(C)CC(O)COc2cccc3ccccc23)c(C)c1 (centres undefined) | 7.49 µM
Cc1cc(C)c(C(CC(=O)c2cccs2)C(C#N)C#N)c(C)c1 (centres undefined) | 8.6 µM
CCCCCCC=C1CCC(CN2CCCC2)C1=O (centres undefined) | 1.94 µM
Cc1ccc(CS(=O)(=O)c2ncc(Cl)c(C(=O)Nc3nnc(C(C)C)s3)n2)cc1 | 1.38 µM
COc1ccc(C(C(=O)Nc2ccc3c(c2)OCCO3)n2c(=O)c(-c3ccco3)nc3ccccc32)cc1 (centres undefined) | 7.56 µM
CCCCn1c(SCC(=O)NCc2ccco2)nnc1-c1ccoc1C | 4.82 µM
COc1ccccc1-c1cc(C(=O)NC2CCN(C)CC2)c2ccc(Cl)c(C)c2n1 | 7.18 µM
CC(=O)OCC1=C(C(=O)O)N2C(=O)C(NC(=O)CCn3nc(C(F)(F)F)c(Br)c3C3CC3)C2SC1 (centres undefined) | 5.24 µM
CC(C)(C)NC(=O)C(c1ccccc1)n1c(=O)c(-c2ccco2)nc2ccccc21 (centres undefined) | 2.16 µM
O=C(NC1CCCCC1)C(c1ccc(-c2ccccc2)cc1)n1c(=O)c(-c2ccco2)nc2ccccc21 (centres undefined) | 1.54 µM
FC(F)(F)c1cccc(NC(=S)N(CCCN2CCCC2)Cc2cccn2Cc2ccc(Cl)cc2)c1 | inactive
CS(=O)(=O)c1ccc(C(=O)NCCN2C(=O)S/C(=C\c3cccnc3)C2=O)cc1[N+](=O)[O-] | 3.67 µM
CSC(=Nc1ccccc1)N=C(SCc1ccccc1)N(C)C | 1.17 µM
CC1=CC(C)(C)Nc2ccc(OC(=O)CN3C(=O)c4cccc5cccc(c45)C3=O)cc21 | 6.89 µM
CCN(CCCc1ccccc1)CCCc1ccccc1 | 2.66 µM
Cc1nc2c(o1)CCc1ccccc1C2N1CCN(C)CC1 (centres undefined) | 8.83 µM
CCC(C)NC(=O)Nc1ccc2c(c1)N(C)C(=O)c1ccccc1S2 (centres undefined) | 4.97 µM
O=C(COc1ccccc1Cl)Nc1ccc(N2CCCC2)cc1 | > 39.9 µM (inactive)

Structure (SMILES) | IC50
Cc1ccc2nc3cc([N+](=O)[O-])cc([N+](=O)[O-])c3cc2c1 | 0.6 µM
Cc1cccc(C)c1NC(=O)C(c1ccccc1)n1c(=O)c(-c2ccco2)nc2ccccc21 (centres undefined) | 5.19 µM
COc1cc2c(cc1OC)C(C)N(CCc1ccc(Cl)cc1)CC2 (centres undefined) | inactive
CC(C)(C)NC(=O)C(c1ccncc1)n1c(=O)c(-c2ccco2)nc2ccccc21 (centres undefined) | 3.66 µM
CC1=CC2C(C(O)CC3(C)C2CC(C)C32OCOC23COCO3)C2(C)C/C(=C\O)C(=O)C=C12 (centres undefined) | 3.27 µM
O=CC1=C(c2ccccc2)Oc2ccccc2O1 | 3.52 µM
O=c1[nH]c(C2CCN(S(=O)(=O)c3ccc(F)cc3)CC2)nc2c1nnn2Cc1ccc2c(c1)OCCO2 | inactive
CCCC(=O)NC(c1cccc([N+](=O)[O-])c1)c1ccc2cccnc2c1O (centres undefined) | > 39.8 µM (inactive)
CC(c1nc2ccccc2[nH]1)n1c(=O)c(-c2ccco2)nc2ccccc21 (centres undefined) | 2.76 µM
Cc1ccc(C)c(/C=C/C(=O)c2ccccc(=O)c2O)c1 | 4.05 µM
COCCN(CCOC)c1nc(N)c2c(N)nc3c(c2c1C#N)CC(=O)N3Cc1ccc(Cl)cc1 | inactive
O=C(NCc1ccccc1)C(c1ccc(-c2ccccc2)cc1)n1c(=O)c(-c2ccco2)nc2ccccc21 (centres undefined) | 2.7 µM
CN(C)CCCN(C(=O)CCc1ccccc1)c1nc2ccc(Cl)cc2s1 | 7.37 µM
O=C(NC1CCCCC1)C(c1cc2ccccc2o1)n1c(=O)c(-c2ccco2)nc2ccccc21 (centres undefined) | 1.36 µM
NC(=NCCCCCCN=C(N)/N=C(\N)Nc1ccc(Cl)cc1)/N=C(\N)Nc1ccc(Cl)cc1 | 3.83 µM and 1.66 µM
CC(=O)Oc1c(Cl)c(N2CCOCC2)c(OC(C)=O)c2ccccc12 | 4.28 µM
CC(C)c1nnc(NC(=O)c2nc(S(=O)(=O)Cc3ccc(F)cc3)ncc2Cl)s1 | 1.94 µM
CN1CCC[C@@H]1CCO[C@](C)(c1ccccc1)c1ccc(Cl)cc1 | inactive
O=C(C[n+]1cccc(CNC(=O)c2ccc(OC(F)F)cc2)c1)Nc1cccc(C(F)(F)F)c1 | inactive
COc1cc(C(C)=O)ccc1OCc1cn(CC(=O)c2ccc(O)cc2)nn1 | 4.43 µM
CC1=CC(C)(C)Nc2ccc(OC(=O)c3cccnc3)cc21 | 2.23 µM
O=C(/C=C/c1ccc(NC(=O)c2ccccc2-c2ccccc2C(=O)O)cc1)c1ccccc1 | 7.14 µM
CC(=O)Nc1ccc(S(=O)(=O)N2c3ccc(F)cc3CCC2C)cc1 (centres undefined) | inactive
COc1ccc(C)c2sc(N(CCN(C)C)C(=O)/C=C/c3cccs3)nc12 | 9.91 µM
Cc1cccc(C)c1NC(=O)C(c1ccncc1)n1c(=O)c(-c2ccco2)nc2ccccc21 (centres undefined) | inactive

Structure (SMILES) | IC50
CC(=O)Cc1cc(O)c2ccccc2c1OC(=O)c1ccccc1 | 1.96 µM
O=C(NCc1ccccc1)C(c1cccc2ccccc12)n1c(=O)c(-c2ccco2)nc2ccccc21 (centres undefined) | 2.23 µM
CN(C)CCCNC(=O)c1ccc(-c2nc(-c3ccc(Cl)cc3)cs2)cc1 | inactive
CCOC(=O)N1CCN(C(=O)C[C@@H]2C[C@@]3(C(=O)OCC)CCC=C3N(Cc3ccc(Cl)cc3Cl)C2=O)CC1 | inactive
O=C1NC(=O)N(Cc2ccc(F)cc2)C(=O)/C1=C\C=C\c1ccco1 | 1.36 µM
C#CCN(C[C@@H]1[C@@H](OC(=O)NCCCCCC)[C@@H](OC(=O)NCCCCCC)Cn2c(=O)ccc(=O)n21)S(=O)(=O)c1ccc(C)cc1 | 4.74 µM
N#Cc1ncc(Cc2ccccc2)nc1C#N | 8.58 µM
Oc1c(C(c2ccccc2)N2CCCCC2)ccc2ccccc12 (centres undefined) | 0.845 µM
CCCCCNC(=O)C(c1ccc(OC)cc1)n1c(=O)c(-c2ccco2)nc2ccccc21 (centres undefined) | 2.18 µM
CC(=O)Cc1cc(O)c2ccccc2c1OC(=O)c1ccc(Br)cc1 | 2.52 µM
CCCCCNC(=O)C(c1ccc(C(F)(F)F)cc1)n1c(=O)c(-c2ccco2)nc2ccccc21 (centres undefined) | 1.82 µM
CCOC(=O)c1c(C)oc2c1c(CN1CCN(CCO)CC1)c(O)c1ccccc12 | 1.81 µM
CC(C)(C)NC(=O)C(c1cc2ccccc2o1)n1c(=O)c(-c2ccco2)nc2ccccc21 (centres undefined) | 1.55 µM
C=C[C@]1(C)C[C@@H](OC(=O)CSCCN(CC)CC)[C@]2(C)C(C)CC[C@]3(CCC(=O)[C@H]32)[C@@H](C)[C@@H]1O (some centres undefined) | 8.04 µM
CC(CCc1ccco1)NC(=O)CCc1nnc2ccc(NCc3ccccc3Cl)nn12 (centres undefined) | 8.97 µM
CC1(C)C2CCC(CN=C(N)CSS(=O)(=O)O)C1C2 (centres undefined) | 4.27 µM
CC(C)(C)NC(=O)C(C1CC1)n1c(=O)c(-c2ccco2)nc2ccccc21 (centres undefined) | 2.74 µM
O=C1/C(=C/c2cccnc2)CC/C1=C\c1cccnc1 | 3.31 µM
Cc1cccc(C)c1NC(=O)C(c1ccnc2ccccc12)n1c(=O)c(-c2ccco2)nc2ccccc21 (centres undefined) | 3.55 µM
CC1=CC(C)(C)Nc2ccc(OC(=O)CN3C(=O)C4CCCCC4C3=O)cc21 (centres undefined) | 2.5 µM
Cc1ccc(C(=O)c2coc3c2C(=O)C(=O)c2ccccc2-3)cc1 | 2.53 µM
O=C(Cn1c(=O)n(Cc2ccco2)c(=O)c2c3c(sc21)CCCC3)Nc1ccccc1 | inactive
O=C(NCc1ccccc1)C(c1ccccc1)n1c(=O)c(-c2ccco2)nc2ccccc21 (centres undefined) | 2.8 µM
O=C(/C(=C/c1ccccc1)n1cncn1)c1ccc(Cl)cc1Cl | 2.49 µM
